Results reported in US9320760B2, “Compositions and methods of use of compounds to increase cancer patient survival time” (BioNumerik Pharmaceuticals, Inc., priority 2008, dated 2016).

Key:
[1] = system: breast cancer cell lines; experiment: cytotoxicity study in combination with cisplatin, breast cancer cell lines; format: cell-based, human; settings: Tavocept in combination with cisplatin vs cisplatin only controls
[2] = system: human cancer cell lines; experiment: interference with paclitaxel and platinum induced cytotoxicity; format: cell-based
Source text: (§1) An important element of Tavocept's™ effectiveness as a compound in the treatment of cancer is its selectivity for normal cells versus cancer cells and its inability to interfere with the anti-cancer activity of chemotherapeutic agents.

[3] = system: human breast, ovarian and lymphoma cancer cell lines; experiment: interference with paclitaxel induced apoptosis (PARP cleavage, Bcl-2 phosphorylation, DNA laddering); format: cell-based; settings: in vitro
Source text: as §1

For `O=S(=O)([O-])CCSSCCS(=O)(=O)[O-].[Na+].[Na+]` [Tavocept™, disodium 2,2′-dithio-bis-ethane sulfonate], the cell death [1] was “increase in cell death”, the “interference with paclitaxel and platinum induced cytotoxicity” value [2] was “did not interfere” and the “interference with paclitaxel induced apoptosis” value [3] was “does not interfere”.
